Entries after “also recorded” stand apart in the source; their conditions may differ.
The compounds below were run on HEL 299 fibroblasts (ATCC-CCL-137) (assay: Cell viability and proliferation assay (WST8/CCK-8)). Settings: compound at 100 μM; mean and standard deviation; relative to untreated controls.
Assay type: cell-based, human
Protocol: HEL 299 cells, obtained from the American Type Culture Collection (ATCC-CCL-137), were selected to investigate the effect of the metal complexes on non-malignant human fibroblasts. Briefly, cells were cultured in Eagle’s Minimum Essential Medium (EMEM) supplemented with 10% fetal bovine serum (FBS), 100 U/mL penicillin and 100 µg/mL streptomycin at 37 °C with 5% CO2. For the biological assays, cells were grown in 96-well plates at 10^4 cells/well. After 24 h of incubation at 37 °C, the monolayer was treated with 100 µL of medium containing the 2-fold serial dilutions of the compounds in the range 100–0.19 µM. Cell viability was assessed by a colorimetric WST8-based assay according to the manufacturer’s instructions (CCK-8, Cell Counting Kit-8, Dojindo Molecular Technologies, Rockville, MD, USA) by measuring the OD at 450 nm. Data are expressed as the percentage of cell viability relative to the untreated controls. The CC50 was obtained on the corresponding dose–response curves generated as previously reported for IC50 values.

Row | Structure (SMILES) | Percentage values of cell viability, HEL 299 [%]
1 | CCNC(=S)N/N=C/c1cccc(OC)c1[O-].[Cl-].[Cu+2] [Compound 4] | 9.1 ± 1.1
2 | COc1cccc(/C=N/NC(N)=O)c1[O-].[Cl-].[Cu+2] [Compound 5, [Cu(HL3)Cl]∙0.5H2O∙0.5CH3OH] | 20.3 ± 0.6
3 | COc1cc(S(=O)(=O)[O-])cc(/C=N/NC(N)=S)c1[O-].[Cl-].[Cu+2].[Na+] [Compound 8] | 90.4 ± 0.6
4 | CCNC(=S)N/N=C/c1cc(S(=O)(=O)[O-])cc(OC)c1[O-].[Cl-].[Cu+2].[Na+] [Compound 9] | 85.8 ± 1.7
5 | COc1cc(S(=O)(=O)[O-])cc(/C=N/NC(N)=O)c1[O-].[Cl-].[Cu+2].[Na+] [Compound 10, [NaCu(HL6)Cl]] | 63.5 ± 3.8
6 | CCCCCCCC(=O)N/N=C/c1cc(S(=O)(=O)[O-])cc(OC)c1[O-].[Cl-].[Cu+2].[Na+] [Compound 13, [NaCu(HL7)Cl]] | 88.7 ± 0.9

Same assay, conditions: ligand at 100 μM; mean values and standard deviations

Row | Structure (SMILES) | Cell proliferation, HEL 299 (Table S1)
7 | CCNC(=S)N/N=C/c1cccc(OC)c1O [Compound H2L2] | 97.2 ± 13.2

Same assay, conditions: mean values and 95% Confidence Interval; dose–response

Row | Structure (SMILES) | CC50 [µM]
8 | CCNC(=S)N/N=C/c1cccc(OC)c1[O-].[Cl-].[Cu+2] [Compound 4] | 1.4

The compounds below were run on Candida albicans ATCC 10231 (assay: Microdilution antifungal assay (CLSI), C. albicans). Settings: compound at 100 μM; mean and standard deviation; 24 h.
Assay type: cell-based
Description: Reference strains of Staphylococcus aureus (ATCC 25923), Escherichia coli (ATCC 25922) and Candida albicans (ATCC 10231) were used in this study as model systems. These laboratory strains were purchased from the American Type Culture Collection (ATCC) (Manassas, VA, USA). The cultures were routinely grown on 5% blood agar plates or Sabouraud Dextrose agar plates (Biolife Italiana S.r.l., Milan, Italy) and used freshly in the assays.
(§1) The antimicrobial properties of the metal complexes were determined by a previously established microdilution method in agreement with the Clinical and Laboratory Standard Institute (CLSI) guidelines. […] The metal complexes were two-fold serially diluted and tested in the range of 100–0.19 µM. Positive controls (in regular media), negative controls (only compounds), solvent controls (DMSO dilutions) and the reference drugs were included in the tests. The plate was incubated at 37 °C for 24 h, and the OD630nm was measured.

Row | Structure (SMILES) | Percentage values of microbial growth, C. albicans [%]
9 | CCNC(=S)N/N=C/c1cccc(OC)c1[O-].[Cl-].[Cu+2] [Compound 4] | 15.6 ± 5.5
10 | COc1cccc(/C=N/NC(N)=O)c1[O-].[Cl-].[Cu+2] [Compound 5, [Cu(HL3)Cl]∙0.5H2O∙0.5CH3OH] | 77.8 ± 2.0
11 | COc1cc(S(=O)(=O)[O-])cc(/C=N/NC(N)=S)c1[O-].[Cl-].[Cu+2].[Na+] [Compound 8] | 89.9 ± 5.3
12 | CCNC(=S)N/N=C/c1cc(S(=O)(=O)[O-])cc(OC)c1[O-].[Cl-].[Cu+2].[Na+] [Compound 9] | 91.4 ± 2.5
13 | COc1cc(S(=O)(=O)[O-])cc(/C=N/NC(N)=O)c1[O-].[Cl-].[Cu+2].[Na+] [Compound 10, [NaCu(HL6)Cl]] | 71.6 ± 1.3
14 | CCCCCCCC(=O)N/N=C/c1cc(S(=O)(=O)[O-])cc(OC)c1[O-].[Cl-].[Cu+2].[Na+] [Compound 13, [NaCu(HL7)Cl]] | 81.7 ± 5.4

Same assay, conditions: ligand at 100 μM; mean values and standard deviations

Row | Structure (SMILES) | Microbial growth, C. albicans (Table S1)
15 | CCNC(=S)N/N=C/c1cccc(OC)c1O [Compound H2L2] | 83.3 ± 14.4

Same assay, conditions: mean values and 95% Confidence Interval; dose–response

Row | IC50 [µM] | Structure (SMILES)
16 | 54.8 | CCNC(=S)N/N=C/c1cccc(OC)c1[O-].[Cl-].[Cu+2] [Compound 4]

Same assay, conditions: up to 100 μM

Row | Structure (SMILES) | Antimicrobial activity against C. albicans (in words)
17 | CCNC(=S)N/N=C/c1cccc(OC)c1[O-].[Cl-].[Cu+2] [Compound 4] | slightly interfered

Each compound was assayed on Escherichia coli ATCC 25922 (assay: Microdilution antimicrobial assay (CLSI), E. coli). Settings: compound at 100 μM.
Assay type: cell-based
Protocol: as §1, with “Reference strains of Staphylococcus aureus (ATCC 25923), Escherichia coli (ATCC 25922) and Candida albicans (ATCC 10231) were used in this study as model systems. These laboratory strains were purchased from the American Type Culture Collection (ATCC) (Manassas, VA, USA). […] The antimicrobial” for “The antimicrobial”, “range of 100-0.19 μM. Positive controls” for “range of 100–0.19 µM. Positive controls”

Row | Structure (SMILES) | Reduction of E. coli growth compared to the untreated cells [%]
18 | COc1cccc(/C=N/NC(N)=O)c1[O-].[Cl-].[Cu+2] [Compound 5, [Cu(HL3)Cl]∙0.5H2O∙0.5CH3OH] | 44.2

Same assay, conditions: compound at 100 μM; mean and standard deviation; 24 h

Row | Structure (SMILES) | Percentage values of microbial growth, E. coli [%]
19 | CCNC(=S)N/N=C/c1cccc(OC)c1[O-].[Cl-].[Cu+2] [Compound 4] | 110.5 ± 4.8
20 | COc1cccc(/C=N/NC(N)=O)c1[O-].[Cl-].[Cu+2] [Compound 5, [Cu(HL3)Cl]∙0.5H2O∙0.5CH3OH] | 55.8 ± 0.5
21 | COc1cc(S(=O)(=O)[O-])cc(/C=N/NC(N)=S)c1[O-].[Cl-].[Cu+2].[Na+] [Compound 8] | 104.1 ± 9.3
22 | CCNC(=S)N/N=C/c1cc(S(=O)(=O)[O-])cc(OC)c1[O-].[Cl-].[Cu+2].[Na+] [Compound 9] | 96.6 ± 1.1
23 | COc1cc(S(=O)(=O)[O-])cc(/C=N/NC(N)=O)c1[O-].[Cl-].[Cu+2].[Na+] [Compound 10, [NaCu(HL6)Cl]] | 99.8 ± 1.8
24 | CCCCCCCC(=O)N/N=C/c1cc(S(=O)(=O)[O-])cc(OC)c1[O-].[Cl-].[Cu+2].[Na+] [Compound 13, [NaCu(HL7)Cl]] | 105.2 ± 2.0

Same assay, conditions: ligand at 100 μM; mean values and standard deviations

Row | Structure (SMILES) | Microbial growth, E. coli (Table S1)
25 | CCNC(=S)N/N=C/c1cccc(OC)c1O [Compound H2L2] | 92.8 ± 3.1

Same assay, conditions: up to 100 μM

Row | Structure (SMILES) | Antimicrobial activity against E. coli (in words)
26 | COc1cccc(/C=N/NC(N)=O)c1[O-].[Cl-].[Cu+2] [Compound 5, [Cu(HL3)Cl]∙0.5H2O∙0.5CH3OH] | lack of antibacterial activity

The compounds below were run on pmaxGFP plasmid DNA (assay: In vitro DNA cleavage/mobility shift assay (agarose gel electrophoresis)). Settings: 100 µM of sample, 200 ng plasmid DNA, 10 mM H2O2, 37 °C, 2 h.
Assay type: biochemical
Protocol: The nuclease activity of the metal complexes was investigated by means of gel electrophoresis after incubating the reaction mixtures (100 µM of sample and 200 ng of plasmid DNA) at 37 °C for 2 h. […] Thus, the assays with the metal complexes were performed in the absence and presence of H2O2 at 10 mM to check whether the DNA cleavage and damage take place through a hydrolytic or an oxidative mechanism.
Studies of the interactions between the metal compounds and plasmid DNA were carried out by agarose gel electrophoresis. Thus, 200 ng of pmaxGFP plasmid, 3527 bps, (Lonza, Basel, Switzerland) were incubated with the metal compounds at 100 μM in the absence or presence of 10 mM of H2O2 in Tris-HCl buffer (NaCl 50 mM, Tris-HCl 5 mM, pH 7.20). The mixture was incubated at 37 °C for 2 h, then the reactions were quenched by adding 5 μL of the loading buffer solution and analyzed by 1% agarose gel electrophoresis.

Row | Structure (SMILES) | Plasmid DNA cleavage in presence of H2O2 (in words)
27 | CCNC(=S)N/N=C/c1cccc(OC)c1[O-].[Cl-].[Cu+2] [Compound 4] | extensive damage to the plasmid DNA
28 | COc1cccc(/C=N/NC(N)=O)c1[O-].[Cl-].[Cu+2] [Compound 5, [Cu(HL3)Cl]∙0.5H2O∙0.5CH3OH] | degrade plasmid DNA
29 | CCCCCCCC(=O)N/N=C/c1cc(S(=O)(=O)[O-])cc(OC)c1[O-].[Cl-].[Cu+2].[Na+] [Compound 13, [NaCu(HL7)Cl]] | only exception

Each compound was assayed on Staphylococcus aureus ATCC 25923 (assay: Microdilution antimicrobial assay (CLSI), S. aureus). Settings: compound at 100 μM; mean and standard deviation; 24 h, relative to positive controls.
Assay type: cell-based
Protocol: as §1, with “Reference strains of Staphylococcus aureus (ATCC 25923), Escherichia coli (ATCC 25922) and Candida albicans (ATCC 10231) were used in this study as model systems. These laboratory strains were purchased from the American Type Culture Collection (ATCC) (Manassas, VA, USA). […] The antimicrobial” for “The antimicrobial”, “range of 100-0.19 μM. Positive controls” for “range of 100–0.19 µM. Positive controls”

Row | Structure (SMILES) | Percentage values of microbial growth, S. aureus [%]
30 | COc1cccc(/C=N/NC(N)=O)c1[O-].[Cl-].[Cu+2] [Compound 5, [Cu(HL3)Cl]∙0.5H2O∙0.5CH3OH] | 83.6 ± 1.4
31 | COc1cc(S(=O)(=O)[O-])cc(/C=N/NC(N)=S)c1[O-].[Cl-].[Cu+2].[Na+] [Compound 8] | 106.3 ± 1.6
32 | CCNC(=S)N/N=C/c1cc(S(=O)(=O)[O-])cc(OC)c1[O-].[Cl-].[Cu+2].[Na+] [Compound 9] | 104.8 ± 0.7
33 | COc1cc(S(=O)(=O)[O-])cc(/C=N/NC(N)=O)c1[O-].[Cl-].[Cu+2].[Na+] [Compound 10, [NaCu(HL6)Cl]] | 97.8 ± 1.4
34 | CCCCCCCC(=O)N/N=C/c1cc(S(=O)(=O)[O-])cc(OC)c1[O-].[Cl-].[Cu+2].[Na+] [Compound 13, [NaCu(HL7)Cl]] | 99.8 ± 3.6

Same assay, conditions: ligand at 100 μM; mean values and standard deviations

Row | Structure (SMILES) | Microbial growth, S. aureus (Table S1)
35 | CCNC(=S)N/N=C/c1cccc(OC)c1O [Compound H2L2] | 96.8 ± 3.5

Same assay, conditions: mean values and 95% Confidence Interval; dose–response

Row | IC50 [µM] | Structure (SMILES)
36 | 3.5 | CCNC(=S)N/N=C/c1cccc(OC)c1[O-].[Cl-].[Cu+2] [Compound 4]

Same assay, conditions: up to 100 μM

Row | Structure (SMILES) | Antimicrobial activity against S. aureus (in words)
37 | CCNC(=S)N/N=C/c1cccc(OC)c1[O-].[Cl-].[Cu+2] [Compound 4] | completely inhibited; also recorded: good activity; also recorded: micromolar activity
38 | COc1cccc(/C=N/NC(N)=O)c1[O-].[Cl-].[Cu+2] [Compound 5, [Cu(HL3)Cl]∙0.5H2O∙0.5CH3OH] | lack of antibacterial activity

What follows are compounds tested on human red blood cells (hRBCs) (assay: Hemolytic activity assay). Settings: compound at 100 μM; 1 h at 37 °C.
Assay type: cell-based
Protocol: The hemolytic activity of the metal complexes was evaluated as the amount of hemoglobin released by the disruption of human red blood cells (hRBCs). Briefly, a suspension of hRBCs (4% w/v in PBS) was prepared from the peripheral blood of anonymous blood donors available for research purposes. […] Then, the supernatants were spectrophotometrically evaluated at OD405nm. Untreated hRBCs (in PBS) and hRBCs incubated with 1% Triton X-100 were employed as negative and positive controls, respectively. The hemolysis percentage was calculated as [OD405nm (sample) − OD405nm (negative control)]/[OD405nm (positive control) − OD405nm (negative control)] × 100. Minimal hemolytic concentrations (MHCs) were defined as the compound concentration causing 10% hemolysis.

Row | Structure (SMILES) | Percentage values of hemolytic activity, hRBCs [%]
39 | CCNC(=S)N/N=C/c1cccc(OC)c1[O-].[Cl-].[Cu+2] [Compound 4] | <5
40 | COc1cccc(/C=N/NC(N)=O)c1[O-].[Cl-].[Cu+2] [Compound 5, [Cu(HL3)Cl]∙0.5H2O∙0.5CH3OH] | <5
41 | COc1cc(S(=O)(=O)[O-])cc(/C=N/NC(N)=S)c1[O-].[Cl-].[Cu+2].[Na+] [Compound 8] | <5
42 | CCNC(=S)N/N=C/c1cc(S(=O)(=O)[O-])cc(OC)c1[O-].[Cl-].[Cu+2].[Na+] [Compound 9] | <5
43 | COc1cc(S(=O)(=O)[O-])cc(/C=N/NC(N)=O)c1[O-].[Cl-].[Cu+2].[Na+] [Compound 10, [NaCu(HL6)Cl]] | <5
44 | CCCCCCCC(=O)N/N=C/c1cc(S(=O)(=O)[O-])cc(OC)c1[O-].[Cl-].[Cu+2].[Na+] [Compound 13, [NaCu(HL7)Cl]] | <5

From publication PMC12155845, “Antimicrobial Activity of Copper(II), Nickel(II) and Zinc(II) Complexes with Semicarbazone and Thiosemicarbazone Ligands Derived from Substituted Salicylaldehydes” (Molecules, 2025)
